Molecules are shown by their SMILES. Structures can show the parent of a compound that is named as a salt.

In one experiment the test system is Acinetobacter baumannii ATCC17978. Kind of experiment: Antimicrobial susceptibility testing: 90% growth inhibitory concentration (IC90) determination, Iso-Sensitest broth, OD 600 nm. The note with it: 90% growth inhibitory concentration, Acinetobacter baumannii ATCC17978, Iso-Sensitest broth, OD 600 nm over 16 h; read-out: ATCC 17978 IC90. The format is cell-based. In short, it runs like this: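 Growth of bacteria (~5×10^5 CFU/ml, Iso-Sensitest medium, 35±2 °C) was followed by OD at 600 nm at 20-min intervals over 16 h against a 10-point twofold compound series (e.g. 50–0.097 μM final). Concentration giving 90% inhibition in log phase was reported.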
In the case of `CCc1cc(Nc2nccn3c(-c4ccc(Cl)c(F)c4F)cnc23)ccc1C(=O)NCCOCCN` [Example 87, N-[2-(2-aminoethoxy)ethyl]-4-[[3-(4-chloro-2,3-difluoro-phenyl)imidazo [1,2-a]pyrazin-8-yl]amino]-2-ethylbenzamide], the IC90 turned out to be 180 nM.
Consider `COc1ccc(-c2cnc3c(Nc4ccc(C(=O)NCCOCCN)c(C)c4)nccn23)cc1` [Example 77], for which the IC90 came out at 230 nM.

Still in this experiment, the particulars now being: Acinetobacter baumannii, ATCC17978, 16 h, 90% growth inhibitory concentration, Acinetobacter baumannii ATCC17978, Iso-Sensitest broth, OD 600 nm over 16 h; read-out: ATCC 17978 IC90.
Take `Cc1cc(Nc2nccn3c(-c4ccc(OC(F)F)cc4)cnc23)ccc1C(=O)NCCOCCN` [Example 90, N-[2-(2-aminoethoxy)ethyl]-4-[[3-[4-(difluoro-methoxy)phenyl]imidazo[1,2-a]pyrazin-8-yl]amino]-2-methylbenzamide; hydrochloride]: the 90% effect concentration (IC90) came out at 230 nM.
Same read-out and setting: the figure for `CCc1cc(Nc2nccn3c(-c4ccc(OCC(=O)OC)c(F)c4F)cnc23)ccc1C(=O)NCCOCCN` [Example 172, formic acid; methyl 2-[4-[8-[4-[2-(2-aminoethoxy)ethylcarbamoyl]-3-ethylanilino]imidazo[1,2-a]pyrazin-3-yl]-2,3-difluorophenoxy] acetate] is 310 nM.
As for `CCc1cc(Nc2nccn3c(-c4ccc(OC)c(F)c4F)cnc23)ccc1C(=O)NCCNCCCN` [Example 188, N-[2-(3-amino-propylamino)ethyl]-4-[[3-(2,3-difluoro-4-methoxyphenyl)imidazo[1,2-a]pyrazin-8-y]amino]-2-ethylbenzamide; formic acid], the IC90 was found to be 1200 nM.
As to `COc1ccc(-c2cnc3c(Nc4ccc(C(=O)NCCOCCNC(=O)CO)c(C)c4)nccn23)cc1` [Example 148, N-[2-[2-[(2-hydroxyacetyl)amino]ethoxy]ethyl]-4-[[3-(4-methoxyphenyl)imidazo[1,2-a]pyrazin-8-yl]amino]-2-methylbenzamide], the IC90 stood at 1300 nM.
On the same count and under the same terms, the figure for `COc1ccc(-c2cnc3c(Nc4ccc(C(=O)NCCOCCN)c(Br)c4)nccn23)c(F)c1F` [Example 167, N-[2-(2-aminoethoxy)ethyl]-2-bromo-4-[[3-(2,3-difluoro-4-methoxyphenyl)imidazo[1,2-a]pyrazin-8-yl]amino] benzamide; formic acid] is 52 nM; for `Cc1cc(Nc2nccn3c(-c4ccc(OC(F)F)cc4)cnc23)ccc1C(=O)NCCOCCN1CCNCC1` [Example 134, 4-[[3-[4-(difluoromethoxy)phenyl]imidazo [1,2-a]pyrazin-8-yl]amino]-2-methyl-N-[2-(2-piperazin-1-ylethoxy)ethyl] benzamide; hydrochloride] it is 800 nM.
`COc1ccc(-c2cnc3c(Nc4ccc(C(=O)NCCOCCN5CCOC(CN)C5)c(C)c4)nccn23)cc1F` (stereo not drawn) [Example 111, N-[2-[2-[2-(aminomethyl)morpholin-4-yl]ethoxy]ethyl]-4-[[3-(3-fluoro-4-methoxyphenyl)imidazo[1,2-a]pyrazin-8-yl]amino]-2-methylbenzamide; hydrochloride]: the IC90 was 560 nM.
Same read-out and setting: next, `CCc1cc(Nc2nccn3c(-c4ccc(OC)c(F)c4F)cnc23)ccc1C(=O)NCCNCC(=O)O` [Example 48, (2-(4-((3-(2,3-difluoro-4-methoxyphenyl)imidazo[1,2-a]pyrazin-8-yl)amino)-2-ethylbenzamido)ethyl)glycine compound with 2,2,2-trifluoroacetic acid]: 920 nM; `COc1ccc(-c2cnc3c(Nc4ccc(C(=O)NCCCNCC[C@H](N)C(=O)O)c(C)c4)nccn23)c(F)c1F` [Example 187, (2S)-2-amino-4-[3-[[4-[[3-(2,3-difluoro-4-methoxyphenyl)imidazo[1,2-a]pyrazin-8-yl]amino]-2-methyl-benzoyl]amino]propylamino] butanoic acid]: 1100 nM; `CCc1cc(Nc2nccn3c(-c4ccc(OC(F)F)c(F)c4F)cnc23)ccc1C(=O)NCCCNCCO` [Example 193, 4-((3-(4-(difluoro-methoxy)-2,3-difluorophenyl)imidazo[1,2-a]pyrazin-8-yl)amino)-2-ethyl-N-(3-((2-hydroxyethyl)amino)propyl) benzamide]: 280 nM.
For `CCc1cc(Nc2nccn3c(-c4ccc(OC(F)F)c(F)c4F)cnc23)ccc1C(=O)NCCNCCO` [Example 174, 4-[[3-[4-(difluoromethoxy)-2,3-difluorophenyl]imidazo[1,2-a]pyrazin-8-yl]amino]-2-ethyl-N-[2-(2-hydroxy-ethylamino)ethyl]benzamide; hydrochloride], the IC90 came to 590 nM.
For the compound `COc1ccc(-c2cnc3c(Nc4ccc(C(=O)NCCOCCN)c(Cl)c4)nccn23)c(F)c1F` [Example 18, N-(2-(2-aminoethoxy)ethyl)-2-chloro-4-((3-(2,3-difluoro-4-methoxyphenyl)imidazo[1,2-a]pyrazin-8-yl)amino)benzamide], the IC90 is 57 nM.
Same read-out and setting: the figure for `COc1ccc(-c2cnc3c(Nc4ccc(C(=O)N(C)CCOCCN5CCN(C6CC6)CC5)c(C)c4)nccn23)cc1F` [Example 130, N-[2-[2-(4-cyclopropyl-piperazin-1-yl)ethoxy]ethyl]-4-[[3-(3-fluoro-4-methoxyphenyl)imidazo[1,2-a]pyrazin-8-yl]amino]-N,2-dimethyl-benzamide] is 760 nM; for `COc1ccc(-c2cnc3c(Nc4ccc(C(=O)NCCCOCC(=O)O)c(C)c4)nccn23)cc1F` [Example 157, 2-[3-[[4-[[3-(3-fluoro-4-methoxyphenyl)imidazo[1,2-a]pyrazin-8-yl]amino]-2-methylbenzoyl]amino]propoxy] acetic acid] it is 8100 nM; for `CCc1cc(Nc2nccn3c(-c4ccc(OC)cc4)cnc23)ccc1C(=O)NCCOCCNCCO` [Example 89, 2-ethyl-N-[2-[2-(2-hydroxyethyl-amino)ethoxy]ethyl]-4-[[3-(4-methoxyphenyl)imidazo[1,2-a]pyrazin-8-yl]amino]benzamide] it is 220 nM.
Same read-out and setting: next, `N#CCOc1ccc(-c2cnc3c(Nc4ccc(C(=O)NCCOCCn5ccnc5)c(Cl)c4)nccn23)c(F)c1F` [Example 19, N-(2-(2-(1H-imidazol-1-yl)ethoxy)ethyl)-2-chloro-4-((3-(4-(cyanomethoxy)-2,3-difluorophenyl)imidazo[1,2-a]pyrazin-8-yl)amino)benzamide]: 83 nM; `CCc1cc(Nc2nccn3c(-c4ccc(OC(F)F)c(F)c4F)cnc23)ccc1C(=O)NCCOCCN(C)CC(=O)O` [Example 51, N-(2-(2-(4-((3-(4-(Difluoromethoxy)-2,3-difluorophenyl)imidazo[1,2-a]pyrazin-8-yl)amino)-2-ethylbenzamido)ethoxy)ethyl)-N-methylglycine trifluoroacetate]: 300 nM.

The experiment is the same for the next values; noted with them: Acinetobacter baumannii, ATCC17978, 16 h, read-out: ATCC 17978 IC90.
For the compound `COc1ccc(-c2cnc3c(Nc4ccc(C(=O)NCCOCCN)c(C)c4)nccn23)c(F)c1F` [Example 5, N-(2-(2-aminoethoxy)ethyl)-4-((3-(2,3-difluoro-4-methoxyphenyl)imidazo[1,2-a]pyrazin-8-yl)amino)-2-methylbenzamide hydrochloride], the IC90 was found to be 65 nM.
With `COc1ccc(-c2cnc3c(Nc4ccc(C(=O)N(C)CCOCCN)c(C)c4)nccn23)cc1` [Example 24, N-(2-(2-aminoethoxy)ethyl)-4-((3-(4-methoxyphenyl)imidazo[1,2-a]pyrazin-8-yl)amino)-N,2-dimethylbenzamide hydrochloride], the IC90 came out at 430 nM.

A word on the IC90: it is the concentration needed for an effect of 90%.

The record behind these values is patent US20230017532A1 (Hoffmann-La Roche Inc., priority 2018, published 2023).
